Values after ≈ are worked out from the molar mass of the structure shown.
Assays:
[1] = cells; conditions: Homo sapiens, HEK-293T, 14 h
Description: Inhibition of TNFalpha-induced NFkappaB activation in HEK293T cells after 14 hrs by luciferase reporter gene assay

[2] = target: Nucleotide-binding oligomerization domain-containing protein 2 (Homo sapiens, UniProt Q9HC29)
[3] = target: T1, Nucleotide-binding oligomerization domain-containing protein 1 (Homo sapiens, UniProt Q9Y239)
T1 sequence (Q9Y239 whole entry): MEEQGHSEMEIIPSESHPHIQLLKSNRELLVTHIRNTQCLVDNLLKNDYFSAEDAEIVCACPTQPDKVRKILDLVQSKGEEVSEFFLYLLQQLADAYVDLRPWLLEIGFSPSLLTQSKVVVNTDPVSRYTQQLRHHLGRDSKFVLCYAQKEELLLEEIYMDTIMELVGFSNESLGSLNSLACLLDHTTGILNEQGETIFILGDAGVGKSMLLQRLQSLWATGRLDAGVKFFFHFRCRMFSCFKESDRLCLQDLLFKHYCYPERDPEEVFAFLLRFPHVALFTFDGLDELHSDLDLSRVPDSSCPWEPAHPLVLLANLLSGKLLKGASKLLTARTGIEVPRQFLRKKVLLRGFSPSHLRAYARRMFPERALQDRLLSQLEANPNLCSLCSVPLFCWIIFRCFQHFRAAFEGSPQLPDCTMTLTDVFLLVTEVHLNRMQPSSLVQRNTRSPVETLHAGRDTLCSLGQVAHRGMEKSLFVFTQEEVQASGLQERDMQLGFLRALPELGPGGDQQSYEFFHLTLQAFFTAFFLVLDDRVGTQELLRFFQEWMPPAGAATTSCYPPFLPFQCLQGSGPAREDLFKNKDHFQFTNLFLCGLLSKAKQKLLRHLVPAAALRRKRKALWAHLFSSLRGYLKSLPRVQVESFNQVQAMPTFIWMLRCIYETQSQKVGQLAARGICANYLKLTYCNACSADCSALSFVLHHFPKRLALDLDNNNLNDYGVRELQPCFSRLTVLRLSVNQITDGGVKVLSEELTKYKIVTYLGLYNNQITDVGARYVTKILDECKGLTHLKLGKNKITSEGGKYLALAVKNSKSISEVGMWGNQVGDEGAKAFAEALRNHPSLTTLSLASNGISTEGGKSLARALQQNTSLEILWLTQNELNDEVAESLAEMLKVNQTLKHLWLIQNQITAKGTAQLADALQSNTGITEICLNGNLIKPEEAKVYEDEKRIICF

[4] = Solubility of the compound at pH 7.4; assay type: physicochemical; conditions: buffer
[5] = tested on: HEK-293T; experiment: Cytotoxicity against HEK293T cells at 20 uM by alamar blue assay; assay type: cell-based; conditions: human

Sequence of Nucleotide-binding oligomerization domain-containing protein 2 (Q9HC29 whole entry, the tested form may be a part): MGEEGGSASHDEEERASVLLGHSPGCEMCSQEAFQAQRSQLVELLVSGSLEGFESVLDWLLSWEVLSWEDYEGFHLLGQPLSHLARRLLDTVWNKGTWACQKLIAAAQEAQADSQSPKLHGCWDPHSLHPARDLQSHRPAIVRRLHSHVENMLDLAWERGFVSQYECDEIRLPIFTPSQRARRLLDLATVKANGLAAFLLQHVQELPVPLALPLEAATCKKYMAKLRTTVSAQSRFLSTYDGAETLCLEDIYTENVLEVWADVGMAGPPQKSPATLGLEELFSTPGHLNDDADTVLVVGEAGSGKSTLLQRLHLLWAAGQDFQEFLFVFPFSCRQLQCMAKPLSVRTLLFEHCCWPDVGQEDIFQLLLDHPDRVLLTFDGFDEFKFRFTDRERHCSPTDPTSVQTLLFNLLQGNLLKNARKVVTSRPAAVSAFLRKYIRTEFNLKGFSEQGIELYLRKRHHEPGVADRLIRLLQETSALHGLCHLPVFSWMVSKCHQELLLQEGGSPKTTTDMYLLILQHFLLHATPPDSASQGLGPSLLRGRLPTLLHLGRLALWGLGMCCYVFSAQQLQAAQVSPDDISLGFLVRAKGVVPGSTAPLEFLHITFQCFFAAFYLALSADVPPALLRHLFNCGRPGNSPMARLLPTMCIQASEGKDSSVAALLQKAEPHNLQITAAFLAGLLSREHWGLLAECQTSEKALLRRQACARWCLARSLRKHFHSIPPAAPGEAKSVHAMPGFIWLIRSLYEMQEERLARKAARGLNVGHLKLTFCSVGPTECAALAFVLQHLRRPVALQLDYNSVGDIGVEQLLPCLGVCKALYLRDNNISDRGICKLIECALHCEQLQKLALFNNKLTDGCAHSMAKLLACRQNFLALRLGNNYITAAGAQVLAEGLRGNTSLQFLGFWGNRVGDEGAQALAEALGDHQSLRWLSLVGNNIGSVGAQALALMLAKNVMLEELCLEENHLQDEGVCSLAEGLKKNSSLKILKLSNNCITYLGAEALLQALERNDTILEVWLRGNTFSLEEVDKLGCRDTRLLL

## CCC(=O)N1CCc2cc(S(=O)(=O)N3CCN(c4ccc(Cl)cc4)CC3)ccc21
[1]
  IC50: > 20 µM
[2]
  IC50: > 20 µM
[3]
  IC50: > 20 µM
[4]
  solubility: 0.1 µg/mL (≈ 0.23 µM)
[5]
  Activity: 0%

## CC(=O)c1ccc(N2CCN(S(=O)(=O)c3ccc4c(c3)CC(C)N4C(C)=O)CC2)cc1 (racemic)
[1]
  IC50: 6 µM
[2]
  IC50: 3.72 µM
[4]
  solubility: 0.1 µg/mL (≈ 0.226 µM)
[5]
  Activity: 0%

## O=C(C1CC1)N1CCc2cc(S(=O)(=O)N3CCN(c4ccc(Cl)cc4)CC3)ccc21
[1]
  IC50: > 20 µM
[2]
  IC50: > 20 µM
[3]
  IC50: > 20 µM
[4]
  solubility: 0.1 µg/mL (≈ 0.224 µM)
[5]
  Activity: 0%

## CCC(=O)N1c2ccc(S(=O)(=O)N3CCN(c4ccc(Cl)cc4)CC3)cc2CC1C (racemic)
[1]
  IC50: 0.58 µM
[2]
  IC50: 0.6 µM
[4]
  solubility: 0.1 µg/mL (≈ 0.223 µM)
[5]
  Activity: 0%

## CC1Cc2cc(S(=O)(=O)N3CCN(c4ccc([N+](=O)[O-])cc4)CC3)ccc2N1C(=O)C1CC1 (racemic)
[1]
  IC50: 0.24 µM
[2]
  IC50: 0.2 µM
[4]
  solubility: 0.1 µg/mL (≈ 0.213 µM)
[5]
  Activity: 0%

## CC1Cc2cc(S(=O)(=O)N3CCN(c4ccc(Cl)cc4)CC3)ccc2N1C(=O)C1CC1 (racemic)
[1]
  IC50: 7.26 µM
[2]
  IC50: 3.63 µM
[4]
  solubility: 0.1 µg/mL (≈ 0.217 µM)
[5]
  Activity: 0%

## O=C(Nc1ccc(S(=O)(=O)O)cc1)c1ccc(CN2CCc3ccccc3C2)cc1
[1]
  IC50: > 20 µM
[2]
  IC50: > 20 µM
[3]
  IC50: > 20 µM
[5]
  Activity: 0%

## COc1ccc(C(=O)Cn2c(N)nc3ccccc32)cc1
[1]
  IC50: > 20 µM
[2]
  IC50: > 20 µM
[3]
  IC50: > 20 µM
[5]
  Activity: 0%

## CCC(=O)N1CCc2cc(S(=O)(=O)N3CCN(c4ccc(C(C)=O)cc4)CC3)ccc21
[1]
  IC50: > 20 µM
[2]
  IC50: > 20 µM
[3]
  IC50: > 20 µM
[4]
  solubility: 0.1 µg/mL (≈ 0.226 µM)
[5]
  Activity: 0%

## CCOc1ccc(NC(=O)c2ccc(CCN3CCc4ccccc4C3)cc2)cc1
[1]
  IC50: > 20 µM
[2]
  IC50: > 20 µM
[3]
  IC50: > 20 µM
[5]
  Activity: 0%

## CC(=O)N1CCc2cc(S(=O)(=O)N3CCN(c4ccc(C#N)cc4)CC3)ccc21
[1]
  IC50: 8.79 µM
[4]
  solubility: 0.1 µg/mL (≈ 0.244 µM)
[5]
  Activity: 0%

## O=C(C1CC1)N1CCc2cc(S(=O)(=O)N3CCN(c4ccc([N+](=O)[O-])cc4)CC3)ccc21
[1]
  IC50: > 20 µM
[4]
  solubility: 0.1 µg/mL (≈ 0.219 µM)
[5]
  Activity: 0%

## O=C(Nc1ccc(OC(F)(F)F)cc1)c1ccc(CN2CCc3ccccc3C2)cc1
[1]
  IC50: 0.03 µM
[2]
  IC50: 0.03 µM
[3]
  IC50: 0.08 µM
[5]
  Activity: 0%

## COc1ccc(N2CCN(S(=O)(=O)c3ccc4c(c3)CC(C)N4C(C)=O)CC2)cc1 (racemic)
[1]
  IC50: 4.3 µM
[2]
  IC50: 3.29 µM
[4]
  solubility: 0.1 µg/mL (≈ 0.233 µM)
[5]
  Activity: 0%

## CCC(=O)N1c2ccc(S(=O)(=O)N3CCN(c4ccc([N+](=O)[O-])cc4)CC3)cc2CC1C (racemic)
[1]
  IC50: 4.92 µM
[2]
  IC50: 1.55 µM
[4]
  solubility: 0.1 µg/mL (≈ 0.218 µM)
[5]
  Activity: 0%

## COc1ccc(NC(=O)c2ccc(CN3CCc4ccccc43)cc2)cc1
[1]
  IC50: > 20 µM
[2]
  IC50: > 20 µM
[3]
  IC50: > 20 µM
[5]
  Activity: 0%

## CC(=O)c1ccc(N2CCN(S(=O)(=O)c3ccc4c(c3)CC(C)N4C(=O)C3CC3)CC2)cc1 (racemic)
[1]
  IC50: > 20 µM
[2]
  IC50: 7.9 µM
[3]
  IC50: 10.3 µM
[4]
  solubility: 0.1 µg/mL (≈ 0.214 µM)
[5]
  Activity: 0%

## COc1ccc(N2CCN(S(=O)(=O)c3ccc4c(c3)CC(C)N4C(=O)C3CC3)CC2)cc1 (racemic)
[1]
  IC50: 3.85 µM
[2]
  IC50: 0.39 µM
[4]
  solubility: 0.1 µg/mL (≈ 0.22 µM)
[5]
  Activity: 0%

## CC(=O)N1c2ccc(S(=O)(=O)N3CCN(c4ccc(C)cc4)CC3)cc2CC1C (racemic)
[1]
  IC50: 4.32 µM
[2]
  IC50: 3.45 µM
[4]
  solubility: 0.1 µg/mL (≈ 0.242 µM)
[5]
  Activity: 0%

## CC(=O)N1c2ccc(S(=O)(=O)N3CCN(c4ccc(Cl)cc4)CC3)cc2CC1C (racemic)
[1]
  IC50: 5.76 µM
[2]
  IC50: 1.75 µM
[4]
  solubility: 0.1 µg/mL (≈ 0.23 µM)
[5]
  Activity: 0%

## CSc1ccc(NC(=O)c2ccc(CN3CCc4ccccc43)cc2)cc1
[1]
  IC50: > 20 µM
[2]
  IC50: > 20 µM
[3]
  IC50: > 20 µM
[5]
  Activity: 0%

## CSc1ccc(NC(=O)c2ccc(CN3CCc4ccccc4C3)cc2)cc1
[1]
  IC50: 0.37 µM
[2]
  IC50: 0.26 µM
[5]
  Activity: 0%

## O=C(Nc1ccc(CN2CCc3ccccc3C2)cc1)c1ccc(Cl)cc1
[1]
  IC50: > 20 µM
[2]
  IC50: > 20 µM
[3]
  IC50: > 20 µM
[5]
  Activity: 0%

## COc1ccc(NC(=O)c2ccc(CN3CCCCC3)cc2)cc1
[1]
  IC50: > 20 µM
[2]
  IC50: > 20 µM
[3]
  IC50: > 20 µM
[5]
  Activity: 0%

## Nc1nc2ccccc2n1C(=O)Cc1ccccc1
[1]
  IC50: > 20 µM
[2]
  IC50: > 20 µM
[3]
  IC50: > 20 µM
[5]
  Activity: 0%

## CC1Cc2cc(S(=O)(=O)N3CCN(c4ccccc4)CC3)ccc2N1C(=O)C1CC1 (racemic)
[1]
  IC50: 15.3 µM
[2]
  IC50: 17.4 µM
[3]
  IC50: > 20 µM
[4]
  solubility: 0.1 µg/mL (≈ 0.235 µM)
[5]
  Activity: 0%

## O=C(Nc1ccc(Cl)cc1)c1ccc(CCN2CCc3ccccc3C2)cc1
[1]
  IC50: > 20 µM
[2]
  IC50: > 20 µM
[3]
  IC50: > 20 µM
[5]
  Activity: 0%

## CCOc1ccc(NC(=O)c2ccc(CN3CCc4ccccc43)cc2)cc1
[1]
  IC50: > 20 µM
[2]
  IC50: > 20 µM
[3]
  IC50: > 20 µM
[5]
  Activity: 0%

## CCC(=O)N1c2ccc(S(=O)(=O)N3CCN(c4ccc(C(C)=O)cc4)CC3)cc2CC1C (racemic)
[1]
  IC50: 1.63 µM
[2]
  IC50: 1.58 µM
[4]
  solubility: 0.1 µg/mL (≈ 0.22 µM)
[5]
  Activity: 0%

## CCOC(=O)c1ccc(NC(=O)c2ccc(CCN3CCc4ccccc4C3)cc2)cc1
[1]
  IC50: 10.8 µM
[2]
  IC50: > 20 µM
[5]
  Activity: 0%

## CCOc1ccc(C(=O)Nc2ccc(CN3CCc4ccccc4C3)cc2)cc1
[1]
  IC50: > 20 µM
[2]
  IC50: > 20 µM
[3]
  IC50: > 20 µM
[5]
  Activity: 0%

## CC(=O)N1c2ccc(S(=O)(=O)N3CCN(c4ccccc4)CC3)cc2CC1C (racemic)
[1]
  IC50: 14.1 µM
[2]
  IC50: 8.27 µM
[4]
  solubility: 0.1 µg/mL (≈ 0.25 µM)
[5]
  Activity: 0%

## Cc1ccc(N2CCN(S(=O)(=O)c3ccc4c(c3)CC(C)N4C(=O)C3CC3)CC2)cc1 (racemic)
[1]
  IC50: > 20 µM
[2]
  IC50: > 20 µM
[3]
  IC50: > 20 µM
[4]
  solubility: 0.1 µg/mL (≈ 0.227 µM)
[5]
  Activity: 0%

Reference: ChEMBL document CHEMBL2016464, “Identification of Inhibitors of NOD1-Induced Nuclear Factor-κB Activation” (ACS Med Chem Lett, 2011)
